The values that follow come from patent publication US8846730B2, “Compounds as cannabinoid receptor ligands” (priority 2008, dated 2014).

The target in one assay is rat CB2 receptors (Rattus norvegicus (Rat), UniProt Q9QZN9). As to the kind of experiment: rat CB2 radioligand binding assay ([3H]CP 55,940 competition). Conditions: HEK293 membranes, 0.5 nM [3H]CP 55,940. A digest of the protocol: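 Membranes from HEK293 cells stably expressing rat CB2 (20 μg protein/well) were incubated 45 min at 30 °C with 0.5 nM [3H]CP 55,940 and five displacer concentrations, in pH 7.4 Tris buffer with 0.5 mg/mL BSA. Bound radioactivity was measured by filtration. Nonspecific binding was defined with 10 μM unlabeled CP 55,940.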

Another assay concerns the target human CB2 receptors (Homo sapiens (Human), UniProt P34972). The assay is described as follows: human CB2 radioligand binding assay ([3H]CP 55,940 competition). Conditions: HEK293 membranes, 0.5 nM [3H]CP 55,940; read-out: human CB2 (Ki). Summed up:
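Displacement of 0.5 nM [3H]CP 55,940 over 0.01 nM-10 μM test compound, measured on human CB2 membranes from stably transfected HEK293 cells. Incubation 90 min at 30 °C in Tris/EDTA/MgCl2/BSA, pH 7.4, then filter-bound radioactivity counted; 10 μM unlabeled CP 55,940 defined nonspecific binding.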

Assay [1] has as its target rat CB1 receptors (HEK cells) (Rattus norvegicus (Rat), UniProt P20272). The assay is described as follows: rat CB1 cyclase functional assay (HitHunter cAMP). The class given is cell-based.
Assay [2] deals with rat CB2 receptors (HEK cells) (Rattus norvegicus (Rat), UniProt Q9QZN9). As to the kind of experiment: rat CB2 cyclase functional assay (HitHunter cAMP). Type of assay: cell-based. The protocol:
The cyclase functional assays were performed using the HitHunter™ cAMP assay kit from DiscoveRx (Fremont, Calif.) according to vendor's protocol. Briefly, HEK cells expressing CB2 or CB1 receptors (rat or human) were detached using cell dissociation buffer (Invitrogen, Carlsbad, Calif.), dispersed and placed in suspension at 10,000 cells per well in 96 well plates prior to the assay. Cell suspensions were incubated at 37° C. for 20 min with variable concentrations of test ligands and or 10 μM CP 55,940-positive control in the presence of a fixed concentration of forskolin (18 μM for rat CB2 and 37 μM for rat CB1) in Dulbescco's phosphate-buffered saline (Invitrogen, Carlsbad, Calif.) supplemented with bovine serum albumin (0.01% final concentration). The reactions were terminated by the addition of lysis buffer and the luminescence was detected following the procedure according to the manufacturer's instructions. EC50 values were calculated using sigmoidal dose-response curve fitting from Prism (GraphPad).

[3] abbreviates: HEK cells, forskolin 18 μM, read-out: rat CB2 cyclase (EC50).
Setting [4] is: HEK cells, forskolin 37 μM, read-out: rCB1 cyclase (EC50).

Like-named read-outs stand apart in the source and are kept apart here.

rat CB1 receptors (HEK cells), sequence (P20272 whole entry): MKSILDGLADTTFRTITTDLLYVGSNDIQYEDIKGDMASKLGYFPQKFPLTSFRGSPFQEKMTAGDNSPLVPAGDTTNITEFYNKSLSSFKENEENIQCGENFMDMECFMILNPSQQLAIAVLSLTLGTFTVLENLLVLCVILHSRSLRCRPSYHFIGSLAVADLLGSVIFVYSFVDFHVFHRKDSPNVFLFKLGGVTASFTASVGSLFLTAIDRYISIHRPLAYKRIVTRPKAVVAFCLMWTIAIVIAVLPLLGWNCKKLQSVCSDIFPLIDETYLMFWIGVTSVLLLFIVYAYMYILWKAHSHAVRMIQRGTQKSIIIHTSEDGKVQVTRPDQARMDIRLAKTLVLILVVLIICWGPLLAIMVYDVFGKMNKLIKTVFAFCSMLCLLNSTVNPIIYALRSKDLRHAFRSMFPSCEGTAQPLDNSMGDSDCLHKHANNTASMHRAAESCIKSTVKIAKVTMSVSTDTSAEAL
human CB2 receptors, sequence (P34972 whole entry): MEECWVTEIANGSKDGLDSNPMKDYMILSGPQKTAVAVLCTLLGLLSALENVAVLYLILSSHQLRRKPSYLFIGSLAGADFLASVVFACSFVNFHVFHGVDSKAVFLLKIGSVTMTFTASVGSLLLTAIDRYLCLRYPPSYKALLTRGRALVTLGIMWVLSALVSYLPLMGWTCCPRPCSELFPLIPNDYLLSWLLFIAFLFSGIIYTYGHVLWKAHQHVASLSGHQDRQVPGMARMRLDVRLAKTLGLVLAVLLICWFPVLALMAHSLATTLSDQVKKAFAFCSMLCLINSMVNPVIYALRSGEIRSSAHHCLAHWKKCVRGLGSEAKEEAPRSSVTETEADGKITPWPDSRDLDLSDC

For the molecule `CN1CC[C@H]1COc1ccc(C(F)(F)F)cc1C(=O)/N=c1\sc(C(C)(C)C)cn1C[C@H]1CCCO1` [Example 3, N-[(2Z)-5-tert-butyl-3-[(2R)-tetrahydrofuran-2-ylmethyl]-1,3-thiazol-2(3H)-ylidene]-2-{[(2S)-1-methylazetidin-2-yl]methoxy}-5-(trifluoromethyl)benzamide], the Ki is 4.5 nM at rat CB2 receptors and 7.4 nM on human CB2 receptors. Also, the EC50 in assay [1] was found to be 1020 nM; in assay [2] (setting [3]), 0.09 nM.
For `CN1CC[C@@H]1COc1ccc(C(F)(F)F)cc1C(=O)/N=c1\sc(C(C)(C)C)cn1C[C@H]1CCCO1` [Example 8, N-[(2Z)-5-tert-butyl-3-[(2R)-tetrahydrofuran-2-ylmethyl]-1,3-thiazol-2(3H)-ylidene]-2-{[(2R)-1-methylazetidin-2-yl]methoxy}-5-(trifluoromethyl)benzamide], in that order: 17 nM, 47 nM, 3680 nM and 0.35 nM.
For `COCCn1cc(C(C)(C)C)s/c1=N\C(=O)c1cc(C(F)(F)F)ccc1OCc1cnccn1` [Example 41, N-[(2Z)-5-tert-butyl-3-(2-methoxyethyl)-1,3-thiazol-2(3H)-ylidene]-2-(pyrazin-2-ylmethoxy)-5-(trifluoromethyl)benzamide], the inhibition constant (Ki) on rat CB2 receptors was found to be 14 nM; on human CB2 receptors, 45 nM. For the same molecule, the values for the EC50 in assay [1] and in assay [2] were 5700 nM and 4.49 nM, respectively.
Take `CC(C)(C)c1cn(C[C@H]2CCCO2)/c(=N/C(=O)c2cc(C(F)(F)F)ccc2OCc2nccs2)s1` [Example 38, N-[(2Z)-5-tert-butyl-3-[(2R)-tetrahydrofuran-2-ylmethyl]-1,3-thiazol-2(3H)-ylidene]-2-(1,3-thiazol-2-ylmethoxy)-5-(trifluoromethyl)benzamide]: the Ki amounted to 2.5 nM at rat CB2 receptors and 5.5 nM on human CB2 receptors. In addition, the EC50 in assay [1] was 2000 nM; in assay [2] it was 0.33 nM.
With `CC(C)(C)c1cn(C[C@H]2CCCO2)/c(=N/C(=O)c2cc(C(F)(F)F)ccc2OC[C@H]2CCCO2)s1` [Example 22, N-[(2Z)-5-tert-butyl-3-[(2R)-tetrahydrofuran-2-ylmethyl]-1,3-thiazol-2(3H)-ylidene]-2-[(2R)-tetrahydrofuran-2-ylmethoxy]-5-(trifluoromethyl)benzamide], the values for the Ki at rat CB2 receptors and at human CB2 receptors were 0.5 nM and 3 nM, respectively. The figures for the EC50 in assay [1] and in assay [2] were 3230 nM and 0.07 nM, respectively.
Take `CN1C[C@H](F)C[C@H]1COc1ccc(C(F)(F)F)cc1C(=O)/N=c1\sc(C(C)(C)C)cn1C[C@H]1CCCO1` [Example 54, N-[(2Z)-5-tert-butyl-3-[(2R)-tetrahydrofuran-2-ylmethyl]-1,3-thiazol-2(3H)-ylidene]-2-{[(2S,4R)-4-fluoro-1-methylpyrrolidin-2-yl]methoxy}-5-(trifluoromethyl)benzamide]: the Ki at rat CB2 receptors amounted to 1.5 nM; at human CB2 receptors it was 2 nM. Besides, the concentration giving a half-maximal response (EC50) in assay [1] amounted to 362 nM; in assay [2] (setting [3]), 0.15 nM.
Regarding `CN1CCN(C)C(COc2ccc(C(F)(F)F)cc2C(=O)/N=c2\sc(C(C)(C)C)cn2C[C@@H]2CCCO2)C1` (some centres unmarked) [Example 34, N-[(2Z)-5-tert-butyl-3-[(25)-tetrahydrofuran-2-ylmethyl]-1,3-thiazol-2(3H)-ylidene]-2-[(1,4-dimethylpiperazin-2-yl)methoxy]-5-(trifluoromethyl)benzamide], the Ki at rat CB2 receptors turned out to be 13 nM; at human CB2 receptors, 25 nM. Further, the results for the EC50 in assay [1] (setting [4]) and in assay [2] (setting [3]) were 4090 nM and 0.3 nM, respectively.
As to `CN1C[C@@H](F)C[C@H]1COc1ccc(C(F)(F)F)cc1C(=O)/N=c1\sc(C(C)(C)C)cn1C[C@H]1CCCO1` [Example 53, N-[(2Z)-5-tert-butyl-3-[(2R)-tetrahydrofuran-2-ylmethyl]-1,3-thiazol-2(3H)-ylidene]-2-{[(2S,4S)-4-fluoro-1-methylpyrrolidin-2-yl]methoxy}-5-(trifluoromethyl)benzamide], the Ki stood at 3.6 nM at rat CB2 receptors and 3 nM at human CB2 receptors. Also, the results for the EC50 in assay [1] and in assay [2] (setting [3]) were 1130 nM and 0.12 nM, respectively.
For `CN(CCOc1ccc(C(F)(F)F)cc1C(=O)/N=c1\sc(C(C)(C)C)cn1C[C@H]1CCCO1)c1ccccc1` [Example 35, N-[(2Z)-5-tert-butyl-3-[(2R)-tetrahydrofuran-2-ylmethyl]-1,3-thiazol-2(3H)-ylidene]-2-{2-[methyl(phenyl)amino]ethoxy}-5-(trifluoromethyl)benzamide], in that order: 6.5 nM, 14 nM, 9490 nM and 6.31 nM.
Regarding `CC(C)(C)c1cn(C[C@H]2CCCO2)/c(=N/C(=O)c2cc(C(F)(F)F)ccc2OC[C@@H]2CCN2)s1` [Example 2, 2-[(2S)-azetidin-2-ylmethoxy]-N-[(2Z)-5-tert-butyl-3-[(2R)-tetrahydrofuran-2-ylmethyl]-1,3-thiazol-2(3H)-ylidene]-5-(trifluoromethyl)benzamide], the Ki at rat CB2 receptors was 3 nM; on human CB2 receptors it was 15 nM. The results for the EC50 in assay [1] and in assay [2] (setting [3]) were 3240 nM and 0.64 nM, respectively.
On to `CC(C)(C)c1cn(C[C@H]2CCCO2)/c(=N/C(=O)c2cc(C(F)(F)F)ccc2OC[C@@H]2CCCCN2)s1` [Example 4], for which the Ki on rat CB2 receptors worked out at 0.6 nM; on human CB2 receptors it was 0.7 nM. The figures for the EC50 in assay [1] (setting [4]) and in assay [2] (setting [3]) were 395 nM and 0.4 nM, respectively.
As to `CN1C(=O)CC[C@H]1COc1ccc(C(F)(F)F)cc1C(=O)/N=c1\sc(C(C)(C)C)cn1C[C@H]1CCCO1` [Example 43, N-[(2Z)-5-tert-butyl-3-[(2R)-tetrahydrofuran-2-ylmethyl]-1,3-thiazol-2(3H)-ylidene]-2-{[(2S)-1-methyl-5-oxopyrrolidin-2-yl]methoxy}-5-(trifluoromethyl)benzamide], the Ki stood at 3.3 nM at rat CB2 receptors and 62 nM at human CB2 receptors. In addition, the EC50 amounted to 6560 nM in assay [1] and 2.09 nM in assay [2] (setting [3]).
For `CC(C)(C)c1cn(C[C@H]2CCCO2)/c(=N/C(=O)c2cc(C(F)(F)F)ccc2OC[C@H]2CCN2)s1` [Example 1, 2-[(2R)-azetidin-2-ylmethoxy]-N-[(2Z)-5-tert-butyl-3-[(2R)-tetrahydrofuran-2-ylmethyl]-1,3-thiazol-2(3H)-ylidene]-5-(trifluoromethyl)benzamide], in that order: 15 nM, 115 nM, 9330 nM and 2.26 nM.
Turning to `CN1CC(COc2ccc(C(F)(F)F)cc2C(=O)/N=c2\sc(C(C)(C)C)cn2C[C@H]2CCCO2)C1` [Example 12, N-[(2Z)-5-tert-butyl-3-[(2R)-tetrahydrofuran-2-ylmethyl]-1,3-thiazol-2(3H)-ylidene]-2-[(1-methylazetidin-3-yl)methoxy]-5-(trifluoromethyl)benzamide], the Ki at rat CB2 receptors stood at 28 nM; at human CB2 receptors it was 208 nM. The EC50 in assay [1] amounted to 10800 nM; in assay [2] (setting [3]) it was 2.07 nM.
For `CC(C)(C)c1cn(C[C@H]2CCCO2)/c(=N/C(=O)c2cc(C(F)(F)F)ccc2OCc2ccccc2)s1` [Example 36, 2-(benzyloxy)-N-[(2Z)-5-tert-butyl-3-[(2R)-tetrahydrofuran-2-ylmethyl]-1,3-thiazol-2(3H)-ylidene]-5-(trifluoromethyl)benzamide], in that order: 2.9 nM, 6 nM, 6560 nM and 1.47 nM.
On to `CC(C)(O)CCOc1ccc(C(F)(F)F)cc1C(=O)/N=c1\sc(C(C)(C)C)cn1C[C@H]1CCCO1` [Example 50, N-[(2Z)-5-tert-butyl-3-[(2R)-tetrahydrofuran-2-ylmethyl]-1,3-thiazol-2(3H)-ylidene]-2-(3-hydroxy-3-methylbutoxy)-5-(trifluoromethyl)benzamide], for which the Ki at rat CB2 receptors was determined as 0.5 nM; on human CB2 receptors, 1.3 nM. Besides, the EC50 came to 1870 nM in assay [1] and 1.21 nM in assay [2].
In the case of `CC(C)(C)c1cn(C[C@H]2CCCO2)/c(=N/C(=O)c2cc(C(F)(F)F)ccc2OCc2cnco2)s1` [Example 37, N-[(2Z)-5-tert-butyl-3-[(2R)-tetrahydrofuran-2-ylmethyl]-1,3-thiazol-2(3H)-ylidene]-2-(1,3-oxazol-5-ylmethoxy)-5-(trifluoromethyl)benzamide], the values for the Ki on rat CB2 receptors and at human CB2 receptors were 9 nM and 26 nM, respectively. The EC50 is 7550 nM in assay [1] and 0.5 nM in assay [2].
